# Experiments:
# Test in all cases: relative viability (nuclei count vs DMSO), 5 days (fraction); higher = more cells survive
# [1] = compound: C=CCc1cccc(/C=N/NC(=O)CN2CCN(Cc3ccccc3)CC2)c1O [PAC-1] + C[C@]1(O)C[C@@H](c2nc(-c3ccc4ccc(-c5ccccc5)nc4c3)c3c(N)nccn32)C1 [Linsitinib] (partner 1 µM)
# In short: (§1)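 Lung cancer cell lines, seeded in 1536-well plates, were treated the following day by pin tool with a single drug or with five library-drug doses (not always all listed) in √10 steps on top of a fixed anchor-drug dose. Cells were fixed and nuclei stained in one step after 5 days, and nuclei were counted. Relative viability is the nuclei count for treated wells divided by that for vehicle wells, reported as medians of duplicate plates.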
# [2] = compound: C=CCc1cccc(/C=N/NC(=O)CN2CCN(Cc3ccccc3)CC2)c1O [PAC-1] + C[C@@H](Oc1cc(-c2cnn(C3CCNCC3)c2)cnc1N)c1c(Cl)ccc(F)c1Cl [Crizotinib] (partner 1 µM)
# In short: as §1
# [3] = compound: C=CCc1cccc(/C=N/NC(=O)CN2CCN(Cc3ccccc3)CC2)c1O [PAC-1] + CC(=O)c1c(C)c2cnc(Nc3ccc(N4CCNCC4)cn3)nc2n(C2CCCC2)c1=O [Palbociclib] (partner 0.5 µM)
# In short: as §1
# [4] = compound: C=CC(=O)Nc1cc(-n2c(=O)ccc3cnc4ccc(-c5ccc(NS(C)(=O)=O)cc5)cc4c32)ccc1C [BMX-IN-1] + C[C@]1(O)C[C@@H](c2nc(-c3ccc4ccc(-c5ccccc5)nc4c3)c3c(N)nccn32)C1 [Linsitinib] (partner 1 µM)
# In short: as §1
# [5] = compound: C=CCc1cccc(/C=N/NC(=O)CN2CCN(Cc3ccccc3)CC2)c1O [PAC-1] + CC(=O)Nc1cccc(-n2c(=O)n(C3CC3)c(=O)c3c(Nc4ccc(I)cc4F)n(C)c(=O)c(C)c32)c1 [Trametinib] (partner 0.02 µM)
# In short: as §1
Cell Line,relative viability ([1]; first compound 0.02 µM),relative viability ([1]; first compound 0.06325 µM),relative viability ([1]; first compound 0.2 µM),relative viability ([1]; first compound 2 µM),relative viability ([2]; first compound 0.02 µM),relative viability ([2]; first compound 0.06325 µM),relative viability ([2]; first compound 0.2 µM),relative viability ([2]; first compound 2 µM),relative viability ([3]; first compound 0.02 µM),relative viability ([3]; first compound 0.06325 µM),relative viability ([3]; first compound 0.2 µM),relative viability ([3]; first compound 2 µM),relative viability ([4]; first compound 0.02 µM),relative viability ([4]; first compound 0.2 µM),relative viability ([4]; first compound 0.6325 µM),relative viability ([4]; first compound 2 µM),relative viability ([5]; first compound 0.02 µM),relative viability ([5]; first compound 0.06325 µM),relative viability ([5]; first compound 0.2 µM),relative viability ([5]; first compound 2 µM)
NCI-H3122,1.03,1.01,0.992,1.03,0.251,0.274,0.234,0.294,0.188,0.179,0.198,0.214,1.04,1.08,1.01,1.02,0.213,0.253,0.205,0.189
NCI-H661,0.432,0.561,0.52,0.532,0.927,1.06,,1.06,0.439,0.445,0.399,0.392,0.677,0.54,0.5,0.685,0.585,0.591,0.581,0.585
NCI-H838,1.02,0.982,0.925,1.15,0.776,0.758,0.801,0.92,0.239,0.227,0.22,0.229,1.19,1.26,1.2,1.08,0.46,0.509,0.459,0.528
NCI-H441,0.519,0.571,0.496,0.564,0.725,0.77,0.714,0.655,0.194,0.266,0.26,0.2,0.594,0.705,0.499,0.696,0.408,0.629,0.482,0.411
NCI-H2126,0.696,0.703,0.692,0.694,1.03,1.02,1.05,1,0.335,0.369,0.38,0.341,0.74,0.659,0.747,0.678,0.548,0.535,0.563,0.55
NCI-H1651,0.823,0.933,0.992,1.12,0.815,0.898,0.874,0.755,0.525,0.536,0.547,0.499,1.22,0.885,0.912,0.86,0.85,0.862,0.765,0.855
NCI-H1734,0.845,0.885,0.928,1.02,0.698,0.627,0.659,0.766,0.307,0.328,0.297,0.355,1.02,0.982,0.981,0.902,0.692,0.774,0.644,0.644
NCI-H1915,1.09,1.09,1.02,1.07,0.892,0.899,0.85,0.857,0.502,0.535,0.49,0.518,1.14,1.1,1.14,1.1,0.304,0.303,0.303,0.33
NCI-H2023,0.642,0.615,0.512,0.876,0.629,0.635,0.534,0.586,0.343,0.353,0.355,0.33,0.798,0.695,0.769,0.726,0.723,0.542,0.47,0.402
NCI-H1755,1.01,1,0.94,0.982,0.938,0.867,0.847,0.805,0.473,0.444,0.453,0.468,1.04,1.09,1.1,1,0.815,0.767,0.783,0.733
EPLC-272H,,1.14,0.934,1.07,,0.95,0.789,0.818,0.279,0.28,0.293,0.268,1.19,1.35,1.42,1.01,0.251,0.322,0.301,0.28
NCI-H358,0.657,0.786,0.709,0.506,0.552,0.531,0.751,0.453,0.12,0.133,0.116,0.115,1,0.732,0.816,0.806,0.128,0.121,0.164,0.128
HCC-827,0.981,0.966,0.932,0.942,0.982,0.943,0.875,0.889,0.482,0.461,0.442,0.473,1.05,1.01,0.999,0.969,0.505,0.569,0.528,0.536
NCI-H2085,0.891,0.936,0.943,1.04,0.742,0.899,0.789,0.947,0.487,0.462,0.428,0.504,0.915,0.934,1.04,0.97,0.452,0.521,0.458,0.629
LCLC-97TM1,,0.196,0.196,0.165,,0.252,0.358,0.298,0.211,0.274,,0.225,0.202,0.166,0.162,0.162,0.179,0.196,,0.221
EKVX,1.03,1.02,0.941,0.917,1.19,1.22,0.893,0.866,0.389,0.385,0.308,0.388,1.14,1.17,1.13,1.02,0.369,0.314,0.314,0.35

Cell Line,relative viability ([1]; first compound 0.02 µM),relative viability ([1]; first compound 0.06325 µM),relative viability ([1]; first compound 0.2 µM),relative viability ([1]; first compound 2 µM),relative viability ([2]; first compound 0.02 µM),relative viability ([2]; first compound 0.06325 µM),relative viability ([2]; first compound 0.2 µM),relative viability ([2]; first compound 2 µM),relative viability ([3]; first compound 0.02 µM),relative viability ([3]; first compound 0.06325 µM),relative viability ([3]; first compound 0.2 µM),relative viability ([3]; first compound 2 µM),relative viability ([4]; first compound 0.02 µM),relative viability ([4]; first compound 0.2 µM),relative viability ([4]; first compound 0.6325 µM),relative viability ([4]; first compound 2 µM),relative viability ([5]; first compound 0.02 µM),relative viability ([5]; first compound 0.06325 µM),relative viability ([5]; first compound 0.2 µM),relative viability ([5]; first compound 2 µM)
PC-14,0.967,1.03,0.91,0.925,0.946,0.931,0.855,0.945,0.586,0.504,0.487,0.606,1.04,1.05,1.01,0.973,0.815,0.704,0.781,0.793
NCI-H1355,0.74,0.89,0.806,0.803,1.08,1.08,1.17,1.03,0.43,0.39,0.412,0.421,0.873,0.827,0.867,0.853,0.464,0.467,0.416,0.419
NCI-H1792,0.648,0.602,0.534,0.579,0.988,1.04,1.03,0.909,0.692,0.627,0.64,0.627,0.431,0.795,0.449,0.51,0.475,0.402,0.392,0.468
NCI-H2009,1.16,1.21,1.17,1.15,1.04,1.05,0.979,0.964,0.203,0.231,0.236,0.239,1.27,1.27,1.29,1.2,0.295,0.35,0.255,0.234
HARA,0.873,0.958,0.851,1.09,0.955,1.03,1.01,1.06,0.228,0.225,0.247,0.329,1.2,1.21,0.851,0.886,0.632,0.697,0.621,0.473
H3255,1.05,0.952,0.862,0.913,0.936,0.848,0.82,0.825,0.359,0.298,0.299,0.291,1.07,1.01,0.965,0.912,0.713,0.746,0.587,0.512
SW 1573,0.826,0.76,0.759,0.914,0.786,0.658,0.701,0.839,0.381,0.292,0.455,0.474,0.709,0.864,0.825,0.771,0.492,0.623,0.528,0.625
NCI-H1666,0.986,0.789,0.983,0.891,0.981,0.897,1.05,1,0.605,0.643,0.676,0.632,0.872,0.891,0.797,0.595,0.909,0.868,0.862,0.914
NCI-H1993,0.735,0.797,0.745,0.701,0.811,0.831,0.626,0.743,0.647,0.656,0.757,0.646,0.68,0.721,,0.636,0.446,0.534,0.623,0.583
HCC-366,0.587,0.699,0.441,0.772,0.542,0.479,0.454,0.591,0.364,0.377,0.365,0.404,0.779,0.995,0.736,0.601,0.339,0.318,0.312,0.365
EMC-BAC-2,0.8,0.815,0.825,0.82,0.771,0.709,0.796,0.72,0.55,0.524,0.519,0.519,0.916,0.782,0.84,0.802,1.07,0.925,0.913,0.849
NCI-H1975,0.917,0.908,0.921,0.894,0.919,0.916,0.944,1,0.629,0.605,0.52,0.725,1.22,1.09,1.06,0.855,0.391,0.424,0.325,0.349
NCI-H1944,1.17,1.05,1.12,1.06,1.06,1.16,1.02,1.14,0.272,0.347,0.374,0.371,1.34,1.22,1.33,1.2,0.414,0.393,0.433,0.444
NCI-H650,0.887,0.912,0.761,0.676,0.591,0.653,0.825,0.72,0.317,0.296,0.39,0.342,0.839,1.09,1.02,0.858,0.871,1.02,0.933,1.27
NCI-H1437,0.986,1.02,0.911,0.71,0.883,0.913,0.85,0.68,0.298,0.35,0.355,0.307,1.35,1.21,1.14,1.03,0.555,0.511,0.494,0.525
